Data on 24 compounds can be found in patent US20200347043A1, “MODULATORS OF THE INTEGRATED STRESS PATHWAY” (Calico Life Sciences LLC, priority 2019, published 2020).

The EC50 is the concentration at which the effect is half-maximal.

Structures are written as SMILES. Some results are limits rather than exact numbers.

In the experiment the test system is HEK293T cells carrying the ATF4 luciferase reporter. Description: ATF4-Luc assay (in vitro model of VWMD). It is filed as cell-based, human. Conditions: Homo sapiens, HEK-293T, 1 μg/mL tunicamycin, 7 hours, One Glo luminescence. A digest of the protocol:
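Tunicamycin (1 μg/mL) stress with co-added compound for 7 hours in HEK293T cells stably carrying an ATF4 5′-UTR–luciferase reporter. EC50 values come from the luminescent signal (One Glo).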
Turning to `O=C(N[C@H]1CC[C@H](C(=O)NCc2ccc(C(F)(F)F)cn2)CC1)[C@H]1C[C@H](O)c2cc(Cl)ccc2O1` [Compound 198, (2R,4S)-6-chloro-4-hydroxy-N-[trans-4-({[5-(trifluoromethyl)pyridin-2-yl]methyl}carbamoyl)cyclohexyl]-3,4-dihydro-2H-1-benzopyran-2-carboxamide], the half-maximal effective concentration (EC50) fell in the range of 250 to 500 nM.
On to `O=C(NC12CC(n3cnc(-c4ccc(C(F)(F)F)nc4)c3)(C1)C2)[C@H]1C[C@@H](O)c2cc(Cl)ccc2O1` [Compound 201, (2R,4R)-6-chloro-4-hydroxy-N-(3-{4-[6-(trifluoromethyl)pyridin-3-yl]-1H-imidazol-1-yl}bicyclo[1.1.1]pentan-1-yl)-3,4-dihydro-2H-1-benzopyran-2-carboxamide], for which the EC50 was less than 10 nM.
Next, `O=C(NC12CCC(c3nnc([C@H]4C[C@@H](OC(F)(F)F)C4)o3)(CC1)CC2)[C@H]1C[C@@H](O)c2cc(Cl)ccc2O1` [Compound 203, (2R,4R)-6-chloro-4-hydroxy-N-(4-{5-[cis-3-(trifluoromethoxy)cyclobutyl]-1,3,4-oxadiazol-2-yl}bicyclo[2.2.2]octan-1-yl)-3,4-dihydro-2H-1-benzopyran-2-carboxamide]: less than 10 nM; `O=C(NC12CCC(c3nnc([C@H]4C[C@@H](OC(F)(F)F)C4)o3)(CC1)CC2)[C@@H]1C[C@H](O)c2cc(Cl)ccc2O1` [Compound 204, (2S,4S)-6-chloro-4-hydroxy-N-(4-{5-[cis-3-(trifluoromethoxy)cyclobutyl]-1,3,4-oxadiazol-2-yl}bicyclo[2.2.2]octan-1-yl)-3,4-dihydro-2H-1-benzopyran-2-carboxamide]: 10 to 50 nM; `O=C(NC12CCC(C(=O)N[C@H]3C[C@@H](OC(F)(F)F)C3)(CC1)OC2)[C@H]1C[C@@H](O)c2cc(Cl)ccc2O1` [Compound 205, (2R,4R)-6-chloro-4-hydroxy-N-(1-{[cis-3-(trifluoromethoxy)cyclobutyl]carbamoyl}-2-oxabicyclo[2.2.2]octan-4-yl)-3,4-dihydro-2H-1-benzopyran-2-carboxamide]: 50 to 250 nM.
Next, `O=C(NC12CCC(C(=O)N[C@H]3C[C@@H](OC(F)(F)F)C3)(CC1)OC2)[C@@H]1C[C@H](O)c2cc(Cl)ccc2O1` [Compound 206, (2S,4S)-6-chloro-4-hydroxy-N-(1-{[cis-3-(trifluoromethoxy)cyclobutyl]carbamoyl}-2-oxabicyclo[2.2.2]octan-4-yl)-3,4-dihydro-2H-1-benzopyran-2-carboxamide]: 500 to 2000 nM; `O=C(N[C@H]1CC[C@H](N2CCN(c3ccc(Cl)c(F)c3)C2=O)CC1)[C@H]1C[C@@H](O)c2cc(Cl)ccc2O1` [Compound 207, (2R,4R)-6-chloro-N-{trans-4-[3-(4-chloro-3-fluorophenyl)-2-oxoimidazolidin-1-yl]cyclohexyl}-4-hydroxy-3,4-dihydro-2H-1-benzopyran-2-carboxamide]: less than 10 nM; `O=C(CO[C@H]1C[C@@H](OC(F)(F)F)C1)NC12CC(NC(=O)[C@@H]3C[C@@H](O)c4cc(Cl)ccc4O3)(C1)C2` [Compound 208, (2S,4R)-6-chloro-4-hydroxy-N-[3-(2-{[cis-3-(trifluoromethoxy)cyclobutyl]oxy}acetamido)bicyclo[1.1.1]pentan-1-yl]-3,4-dihydro-2H-1-benzopyran-2-carboxamide]: less than 10 nM.
Next, `O=C(NC12CC(n3cc(-c4ccc(Cl)cc4)cn3)(C1)C2)[C@H]1C[C@@H](O)c2cc(Cl)ccc2O1` [Compound 212, (2R,4R)-6-chloro-N-{3-[4-(4-chlorophenyl)-1H-pyrazol-1-yl]bicyclo[1.1.1]pentan-1-yl}-4-hydroxy-3,4-dihydro-2H-1-benzopyran-2-carboxamide]: less than 10 nM; `O=C(CO[C@H]1C[C@@H](OC(F)(F)F)C1)N[C@H]1CC[C@H](NC(=O)[C@H]2CC(=O)c3cc(Cl)ccc3O2)CC1` [Compound 213, (2R)-6-chloro-4-oxo-N-[trans-4-(2-{[cis-3-(trifluoromethoxy)cyclobutyl]oxy}acetamido)cyclohexyl]-3,4-dihydro-2H-1-benzopyran-2-carboxamide]: 50 to 250 nM; `O=C(CO[C@H]1C[C@@H](OC(F)(F)F)C1)N[C@H]1CC[C@H](NC(=O)[C@H]2C[C@@H](O)c3cc(Cl)ccc3O2)CC1` [Compound 214, (2R,4R)-6-chloro-4-hydroxy-N-[trans-4-(2-{[cis-3-(trifluoromethoxy)cyclobutyl]oxy}acetamido)cyclohexyl]-3,4-dihydro-2H-1-benzopyran-2-carboxamide]: 10 to 50 nM.
Take `O=C(N[C@H]1CC[C@H](C(=O)N[C@H]2C[C@@H](OC(F)(F)F)C2)CC1)[C@H]1C[C@@H](O)c2cc(Cl)ccc2O1` [Compound 215, (2R,4R)-6-chloro-4-hydroxy-N-[trans-4-{[cis-3-(trifluoromethoxy)cyclobutyl]carbamoyl}cyclohexyl]-3,4-dihydro-2H-1-benzopyran-2-carboxamide]: the EC50 is less than 10 nM.
`O=C1C[C@H](C(=O)NC23CC(C(=O)N[C@H]4C[C@@H](OC(F)(F)F)C4)(C2)C3)Oc2ccc(Cl)cc21` [Compound 216, (2R)-6-chloro-4-oxo-N-(3-{[cis-3-(trifluoromethoxy)cyclobutyl]carbamoyl}bicyclo[1.1.1]pentan-1-yl)-3,4-dihydro-2H-1-benzopyran-2-carboxamide]: the EC50 is greater than 2000 nM.
To `O=C(NC12CC(c3nc([C@H]4C[C@@H](OC(F)(F)F)C4)no3)(C1)C2)[C@@H]1C[C@@H](O)c2cc(Cl)ccc2O1` [Compound 217, (2S,4R)-6-chloro-4-hydroxy-N-(3-{3-[cis-3-(trifluoromethoxy)cyclobutyl]-1,2,4-oxadiazol-5-yl}bicyclo[1.1.1]pentan-1-yl)-3,4-dihydro-2H-1-benzopyran-2-carboxamide] belongs 50 to 250 nM.
On to `O=C(NC12CC(c3nc([C@H]4C[C@@H](OC(F)(F)F)C4)no3)(C1)C2)[C@@H]1C[C@H](O)c2cc(Cl)ccc2O1` [Compound 218, (2S,4S)-6-chloro-4-hydroxy-N-(3-{3-[cis-3-(trifluoromethoxy)cyclobutyl]-1,2,4-oxadiazol-5-yl}bicyclo[1.1.1]pentan-1-yl)-3,4-dihydro-2H-1-benzopyran-2-carboxamide], for which the EC50 was in the range of 500 to 2000 nM.
To `O=C(CO[C@H]1C[C@@H](OC(F)(F)F)C1)NC12CCC(NC(=O)[C@H]3C[C@@H](O)c4cc(Cl)ccc4O3)(CC1)[C@@H](O)C2` [Compound 220, (2R,4R)-6-chloro-4-hydroxy-N-[(2S)-2-hydroxy-4-(2-{[cis-3-(trifluoromethoxy)cyclobutyl]oxy}acetamido)bicyclo[2.2.2]octan-1-yl]-3,4-dihydro-2H-1-benzopyran-2-carboxamide] belongs less than 10 nM; to `O=C1C[C@H](C(=O)NC23CCC(C(=O)N[C@H]4C[C@@H](OC(F)(F)F)C4)(CC2)CC3)Oc2ccc(Cl)cc21` [Compound 221, (2R)-6-chloro-4-oxo-N-(4-{[cis-3-(trifluoromethoxy)cyclobutyl]carbamoyl}bicyclo[2.2.2]octan-1-yl)-3,4-dihydro-2H-1-benzopyran-2-carboxamide], 50 to 250 nM.
For `O=C(NC12CCC(C(=O)N[C@H]3C[C@@H](OC(F)(F)F)C3)(CC1)CC2)[C@H]1C[C@@H](O)c2cc(Cl)ccc2O1` [Compound 222, (2R,4R)-6-chloro-4-hydroxy-N-(4-{[cis-3-(trifluoromethoxy)cyclobutyl]carbamoyl}bicyclo[2.2.2]octan-1-yl)-3,4-dihydro-2H-1-benzopyran-2-carboxamide], the EC50 is 10 to 50 nM.
To `O=C(CO[C@H]1C[C@@H](OC(F)(F)F)C1)NC12CCC(NC(=O)[C@H]3CC(=O)c4cc(Cl)ccc4O3)(CC1)[C@@H](O)C2` [Compound 223, (2R)-6-chloro-N-[(2S)-2-hydroxy-4-(2-{[cis-3-(trifluoromethoxy)cyclobutyl]oxy}acetamido)bicyclo[2.2.2]octan-1-yl]-4-oxo-3,4-dihydro-2H-1-benzopyran-2-carboxamide] belongs 10 to 50 nM.
Next, `O=C1C[C@H](C(=O)NC23CC(N4CCC(c5ccc(Cl)cc5)C4=O)(C2)C3)Oc2ccc(Cl)cc21` (stereo partly drawn) [Compound 224, (2R)-6-chloro-N-{3-[3-(4-chlorophenyl)-2-oxopyrrolidin-1-yl]bicyclo[1.1.1]pentan-1-yl}-4-oxo-3,4-dihydro-2H-1-benzopyran-2-carboxamide]: greater than 2000 nM; `O=C(NC12CC(C3=NOC([C@H]4C[C@@H](O)C4)C3)(C1)C2)[C@H]1C[C@@H](O)c2cc(Cl)ccc2O1` (stereo partly drawn) [Compound 227, (2R,4R)-6-chloro-4-hydroxy-N-(3-{5-[cis-3-hydroxycyclobutyl]-4,5-dihydro-1,2-oxazol-3-yl}bicyclo[1.1.1]pentan-1-yl)-3,4-dihydro-2H-1-benzopyran-2-carboxamide]: greater than 2000 nM; `O=C(NC12CC(C3=NOC([C@H]4C[C@@H](O)C4)C3)(C1)C2)[C@@H]1C[C@@H](O)c2cc(Cl)ccc2O1` (stereo partly drawn) [Compound 228, (2S,4R)-6-chloro-4-hydroxy-N-(3-{5-[cis-3-hydroxycyclobutyl]-4,5-dihydro-1,2-oxazol-3-yl}bicyclo[1.1.1]pentan-1-yl)-3,4-dihydro-2H-1-benzopyran-2-carboxamide]: greater than 2000 nM.
Next, `O=C(NC12CC(c3nc([C@H]4C[C@@H](OC(F)(F)F)C4)no3)(C1)C2)[C@H]1C[C@@H](O)c2cc(Cl)ccc2O1` [Compound 229, (2R,4R)-6-chloro-4-hydroxy-N-(3-{3-[cis-3-(trifluoromethoxy)cyclobutyl]-1,2,4-oxadiazol-5-yl}bicyclo[1.1.1]pentan-1-yl)-3,4-dihydro-2H-1-benzopyran-2-carboxamide]: 10 to 50 nM; `O=C(NC12CC(c3nc(-c4ccc(Cl)c(F)c4)no3)(C1)C2)[C@@H]1C[C@@H](O)c2cc(Cl)ccc2O1` [Compound 230, (2S,4R)-6-chloro-N-{3-[3-(4-chloro-3-fluorophenyl)-1,2,4-oxadiazol-5-yl]bicyclo[1.1.1]pentan-1-yl}-4-hydroxy-3,4-dihydro-2H-1-benzopyran-2-carboxamide]: 50 to 250 nM.
